Assay results reported in ChEMBL document CHEMBL1201862, “PubChem BioAssay data set” (2004).
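Exposure lasted 48 hours, with cells grown in 96-well plates and compounds tested at five concentrations. GI50 is the concentration that inhibits growth by half.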 Activity calls are given as the source filed them. No stated cut-off is given here; in the data, active = GI50 up to about 1.1 µM and inactive = higher.

Assays:
Experiment in all cases: NCI tumour cell line growth inhibition, 48 h
U-251 = tested on: U-251
OVCAR-4 = tested on: OVCAR-4
KM-20L2 = tested on: KM-20L2
SK-MEL-28 = tested on: SK-MEL-28
IGROV-1 = tested on: IGROV-1
SK-OV-3 = tested on: SK-OV-3
SF-268 = tested on: SF-268
HCC 2998 = tested on: HCC 2998
SF-539 = tested on: SF-539
LOX IMVI = tested on: LOX IMVI
SN12C = tested on: SN12C
UO-31 = tested on: UO-31
SW-620 = tested on: SW-620
EKVX = tested on: EKVX
HL-60 = tested on: HL-60
CCRF-CEM = tested on: CCRF-CEM
A549 = tested on: A549
RPMI-8226 = tested on: RPMI-8226
MDA-N = tested on: MDA-N
DU-145 = tested on: DU-145

Measured: GI50

O=C(/C=C/c1ccco1)c1ccc(NCc2nc3ccccc3[nH]2)cc1
inactive: U-251 10.9 µM | OVCAR-4 19.2 µM | KM-20L2 18.7 µM | SK-MEL-28 18 µM | IGROV-1 18.1 µM | SK-OV-3 18.3 µM | SF-268 20 µM | HCC 2998 14.6 µM | SF-539 18 µM | LOX IMVI 12.2 µM | SN12C 17.2 µM | UO-31 13.8 µM | SW-620 16 µM | EKVX 14.6 µM | HL-60 13 µM | CCRF-CEM 13 µM

O=C1NCC2=C1CCC1c3ccccc3CCN21 (stereo not given)
inactive: U-251 > 100 µM | A549 > 100 µM | KM-20L2 > 100 µM | SK-MEL-28 > 100 µM | IGROV-1 > 100 µM | SK-OV-3 > 100 µM | SF-268 > 100 µM | HCC 2998 > 100 µM | SF-539 > 100 µM | LOX IMVI > 100 µM | SN12C > 100 µM | UO-31 > 100 µM | SW-620 > 100 µM | EKVX > 100 µM | HL-60 > 100 µM | CCRF-CEM > 100 µM

Cc1ccc(-n2nc(C(OC3OC(CO)C(O)C(O)C3O)C(O)CO)c3nc4cc(C)c(C)cc4nc32)cc1 (stereo not given)
inactive: U-251 > 100 µM | OVCAR-4 99.1 µM | KM-20L2 > 100 µM | SK-MEL-28 > 100 µM | RPMI-8226 > 100 µM | SK-OV-3 > 100 µM | SF-268 > 100 µM | HCC 2998 > 100 µM | SF-539 > 100 µM | LOX IMVI > 100 µM | SN12C > 100 µM | UO-31 > 100 µM | EKVX > 100 µM | CCRF-CEM > 100 µM

C=C1C(O)C2OC(=O)C(=C)C2C(OC(=O)/C(C)=C/C)CC2(C)OC2C2OC12 (stereo not given)
inactive: U-251 17.2 µM | MDA-N 2.2 µM | OVCAR-4 2.71 µM | A549 19.8 µM | SK-MEL-28 20.4 µM | IGROV-1 6.15 µM | RPMI-8226 2.58 µM | SK-OV-3 43.6 µM | SF-268 4.67 µM | HCC 2998 4.89 µM | SF-539 6.85 µM | LOX IMVI 6.68 µM | SN12C 2.82 µM | UO-31 5.98 µM | SW-620 8.04 µM | DU-145 7.14 µM | EKVX 10.4 µM | HL-60 2.52 µM | CCRF-CEM 12.6 µM

COc1ccc(-n2c(Cn3nnc(-c4cccnc4)n3)nn(C3OC(COC(=O)c4ccccc4)C(OC(=O)c4ccccc4)C3OC(=O)c3ccccc3)c2=S)cc1 (stereo not given)
inactive: U-251 > 100 µM | MDA-N > 100 µM | OVCAR-4 > 100 µM | A549 > 100 µM | SK-MEL-28 > 100 µM | IGROV-1 32.4 µM | RPMI-8226 > 100 µM | SK-OV-3 > 100 µM | SF-268 > 100 µM | HCC 2998 > 100 µM | SF-539 > 100 µM | LOX IMVI > 100 µM | SN12C > 100 µM | UO-31 > 100 µM | SW-620 > 100 µM | DU-145 > 100 µM | EKVX 39.4 µM | HL-60 > 100 µM | CCRF-CEM > 100 µM

COC(=O)C1=NC(=S)NC(c2ccccc2)C1c1nc2ccccc2s1 (stereo not given)
inactive: U-251 > 100 µM | OVCAR-4 > 100 µM | A549 > 100 µM | KM-20L2 > 100 µM | SK-MEL-28 > 100 µM | IGROV-1 > 100 µM | SK-OV-3 > 100 µM | SF-268 > 100 µM | HCC 2998 > 100 µM | SF-539 67.8 µM | SN12C > 100 µM | UO-31 > 100 µM | SW-620 > 100 µM | EKVX > 100 µM | HL-60 98.2 µM | CCRF-CEM > 100 µM

S=C(/N=C1/NCC(CN2CCN(c3ccccc3)CC2)O1)Nc1ccccc1 (stereo not given)
inactive: U-251 55.3 µM | MDA-N > 100 µM | OVCAR-4 49.3 µM | A549 61 µM | SK-MEL-28 > 100 µM | IGROV-1 > 100 µM | RPMI-8226 42.3 µM | SK-OV-3 > 100 µM | SF-268 > 100 µM | HCC 2998 57.9 µM | SF-539 34.4 µM | LOX IMVI 25 µM | SN12C > 100 µM | UO-31 11.6 µM | SW-620 52.7 µM | DU-145 56.9 µM | EKVX > 100 µM | HL-60 29 µM | CCRF-CEM 30.5 µM

CCOc1cc(C2SCC(=O)N2c2ccc(Oc3ccc(Cl)cc3)c(Cl)c2)ccc1O (stereo not given)
inactive: U-251 18.4 µM | MDA-N 23.1 µM | OVCAR-4 16 µM | A549 17.9 µM | SK-MEL-28 20 µM | IGROV-1 15.9 µM | RPMI-8226 14.7 µM | SK-OV-3 21.6 µM | SF-268 15.4 µM | HCC 2998 17.9 µM | SF-539 16.1 µM | LOX IMVI 19.4 µM | SN12C 33 µM | UO-31 10 µM | SW-620 17 µM | DU-145 16.6 µM | EKVX 18 µM | HL-60 12.6 µM | CCRF-CEM 13.7 µM

CC1(C)OCC([C@H]2CC23SCCCS3)O1 (stereo not given in full)
inactive: U-251 > 100 µM | OVCAR-4 > 100 µM | A549 > 100 µM | KM-20L2 > 100 µM | SK-MEL-28 > 100 µM | IGROV-1 > 100 µM | RPMI-8226 > 100 µM | SK-OV-3 > 100 µM | SF-268 > 100 µM | SF-539 > 100 µM | SN12C > 100 µM | UO-31 > 100 µM | EKVX > 100 µM | HL-60 > 100 µM

N#Cc1nc(CCC(c2nc(C#N)c(N)o2)N2C(=O)c3ccccc3C2=O)oc1N (stereo not given)
inactive: U-251 > 100 µM | MDA-N > 100 µM | OVCAR-4 67.6 µM | A549 > 100 µM | SK-MEL-28 > 100 µM | IGROV-1 > 100 µM | RPMI-8226 > 100 µM | SK-OV-3 > 100 µM | SF-268 > 100 µM | HCC 2998 > 100 µM | SF-539 > 100 µM | LOX IMVI > 100 µM | SN12C > 100 µM | UO-31 > 100 µM | SW-620 > 100 µM | DU-145 > 100 µM | EKVX > 100 µM | HL-60 > 100 µM | CCRF-CEM > 10 µM

CC(C)CSCC1OC(n2cnc3c(N)nccc32)C(O)C1O (stereo not given)
inactive: U-251 > 100 µM | MDA-N > 100 µM | OVCAR-4 > 100 µM | A549 > 100 µM | SK-MEL-28 > 100 µM | IGROV-1 > 100 µM | RPMI-8226 > 67 µM | SK-OV-3 > 100 µM | SF-268 > 100 µM | HCC 2998 27.9 µM | SF-539 > 100 µM | LOX IMVI > 100 µM | SN12C > 100 µM | UO-31 > 100 µM | SW-620 > 100 µM | DU-145 > 100 µM | EKVX 89.5 µM | HL-60 > 100 µM | CCRF-CEM > 100 µM
